Measured values as given in patent publication US20230263863A1, “COMPOSITIONS HAVING NEUROREGENERATIVE APPLICATIONS” (GRIFOLS WORLDWIDE OPERATIONS LIMITED, priority 2020, published 2023).
Counter-ions that a name gives are not always drawn.

Legend:
SH-SY5Y cells [1] = experiment: Neurite outgrowth (Outgrowth Fold Change) in undifferentiated SH-SY5Y cells; assay type: cell-based, human; settings: for neurite outgrowth / differentiation over the concentration range: DFO compared with ApoTf; for neurite outgrowth or differentiation: FIG. 5; for neurogenesis / differentiation (neurite outgrowth): all proteins 0.2 mg/mL
Experimental: (§1) Undifferentiated SH-SY5Y cells were seeded into 96 well clear bottom plates in media containing 0.1% FBS. A serum-free base media was utilized as recommended by the supplier for SH-SY5Y cells (Sigma, Cat #94030304-1VL). Twenty-four hours after seeding cells, a 3× stock solution of ApoTf, final concentrations indicated on the x-axis, in serum free base media was added to the cells. ApoTf was obtained and purified from pooled human plasma and dosed at a final concentration of 0.2 mg/mL. Cells were allowed to differentiate for 6 days. Neurite growth was assessed by imaging and image analysis. At the time of analysis, a 10× solution of Tubulin Tracker (Molecular Probes, T34075) and Hoechst 33342 (Molecular Probes #H3570) nuclear stain was prepared.
Briefly, Tubulin Tracker dissolved in DMSO was diluted 1:1 with Pluronic F-127 and further diluted into HBSS to generate a 10× solution. Hoechst 33342 was added to the HBSS-Tubulin Tracker solution at 10 μg/mL to generate a 10× nuclear stain. The 10× staining solution (10 μL) was added directly to treated assay wells and incubated at 37° C. for 30 minutes. Following incubation, 110 μL of 0.4% Trypan Blue was added directly to assay wells and imaged on a Molecular Devices Nano imaging instrument. Nine images/well were acquired in the blue (Nuclei) and green (Tubulin) fluorescent channels for each image.
(§2) After obtaining images, the MetaExpress Neurite Outgrowth analysis module (Molecular Devices) was used to identify cells, cell bodies, and quantify neurites. The total number of neurite branches were divided by the total number of cells imaged to account for different numbers of cells in each test well. The Outgrowth Fold Change was determined by setting the untreated control cells to a value of 1 with all other treatments shown relative to untreated control.

HIF-1α = settings: undifferentiated SH-SY5Y; US2016008437; cited from earlier work
SH-SY5Y cells [2] = experiment: Cell number / proliferation of SH-SY5Y cells; assay type: cell-based, human
Experimental: as §1, with “ApoTf was obtained and purified from pooled human plasma and dosed at a final concentration of 0.2 mg/mL.” left out
Briefly, Tubulin Tracker dissolved in DMSO was diluted 1:1 with Pluronic F-127 and further diluted into HBSS to generate a 10× solution. Hoechst 33342 was added to the HBSS-Tubulin Tracker solution at 10 μg/mL to generate a 10× nuclear stain. The 10× staining solution (10 μL) was added directly to treated assay wells and incubated at 37° C. for 30 minutes. […]
as §2, with “The total number of neurite branches were divided by the total number of cells imaged to account for different numbers of cells in each test well.” left out

SH-SY5Y cells [3] = experiment: β-III-tubulin staining intensity in SH-SY5Y cells; assay type: cell-based, human; settings: FIG. 1D
Experimental: In this experiment, the SH-SY5Y cells were differentiated as described supra. At the time of analysis, cells were fixed with paraformaldehyde, stained for β-III-tubulin (R&D Systems, MAB1195), and imaged on a Molecular Devices Nano imaging instrument. Image analysis was performed by assessing the fluorescent intensity of cells stained with β-III-tubulin. Background from secondary antibody alone was subtracted from all values. Values are shown with standard deviations as “β-III-Tubulin Staining Intensity” for the indicated conditions.

[4] = test system: primary human brain cortex-derived neural progenitor cells; experiment: Differentiation of primary human neural progenitor cells to neurons and astrocytes; assay type: cell-based; settings: ApoTf 0.8 mg/mL, 72 hours
Experimental: Neural progenitor cells maintained as neurospheres were obtained from Lonza (PT-2599). Cells were thawed from a frozen vial of neurospheres and cultured in Human NeuroCult™ NS-A Complete Proliferation media (Stemcell Technologies) for 2 weeks. Neurospheres were dissociated to single cells and plated in Laminin coated wells of assay plates. The neural progenitor cells were seeded in NeuroCult™ NS-A Basal media containing 1/10th concentration of the recommended proliferation supplements, in the absence or presence of ApoTf (0.8 mg/mL) for 72 hours. At the time of analysis, cells were fixed with paraformaldehyde, stained for β-III-tubulin (R&D Systems, MAB1195) and GFAP (Invitrogen, PA3-16727), and imaged on a Molecular Devices Nano imaging instrument. Image analysis was performed by assessing the relative numbers of cells staining positive for β-III-tubulin or GFAP. Values for the indicated conditions are shown with standard deviations as “% β-III-Tubulin Positive” cells (FIG. 2A) or “% GFAP Positive” cells (FIG. 2B).

[5] = test system: MPTP-induced Parkinson's Disease in mice; experiment: Kinematic gait analysis in MPTP-induced Parkinson's Disease mice; assay type: in vivo, C57BI/6J mice; settings: ApoTf 350 mg/kg i.p. once a day, days 1-7; analysis on day 7; n=15
Experimental: Animal experiments were performed at Charles River Laboratories (Finland), as specified in the license authorized by the national Animal Experiment Board of Finland and according to the National Institutes of Health (Bethesda, Md., USA) guidelines for the care and use of laboratory animals. Eight to twelve-week-old, C57BI/6J mice were housed at a standard temperature (22±1° C.) and in a light-controlled environment (lights on from 7 am to 8 pm) with ad libitum access to food and water.
Solutions of MPTP were prepared by dissolving MPTP hydrochloride in sterile saline at 2.42 mg/mL; corresponding to 2.0 mg/mL of active compound. To induce Parkinson's Disease, the MPTP was given by intraperitoneal injection twice a day at 20 mg/kg. […]
The captured videos of each mouse were first converted to the software-readable format. […] Gait pattern and movement analysis assessed 100 different parameters, including but not limited to stride time, swing time during a stride, speed, step width, stance and interlimb coordination. The data was analysed by using principal component analysis (PCA). The overall gait analysis was based on the PCA of all parameters for each mouse, with the obtained value showing the overall differences, measured as a “distance”, between control mice and MPTP, or MPTP plus ApoTf mice. […]

[6] = Iron saturation of transferrin samples by ICP-AES; assay type: physicochemical
Experimental: Protein purity was determined by SDS-PAGE. Iron saturation levels were determined using ICP-AES in accordance with the procedures outlined in Manley et al., J Biol Inorg Chem (2009) 14:61-74, the contents of which are incorporated herein by reference.

[7] = FIG. 1C, 0.1 mg/mL ApoTf vs untreated control

CC(=O)N(O)CCCCCNC(=O)CCC(=O)N(O)CCCCCNC(=O)CCC(=O)N(O)CCCCCN [DFO, Deferoxamine mesylate, reference compound]
concentration of maximal neurite outgrowth (SH-SY5Y cells [1]; FIG. 3A): 1 to 3 µM
neurite outgrowth / differentiation over the concentration range (SH-SY5Y cells [1]; FIG. 3A): little neurite formation beyond that concentration

O=C(O)CNC(=O)c1c(O)c2ccccc2n(Cc2ccccc2)c1=O [IOX2, N-[[1,2-Dihydro-4-hydroxy-2-oxo-1-(phenylmethyl)-3-quinolinyl]carbonyl]-glycine, reference compound]
neurite outgrowth or differentiation (SH-SY5Y cells [1]; 4 μM IOX2): no effect was observable
neurite outgrowth or differentiation (SH-SY5Y cells [1]; IOX2-treated cells): no neurite outgrowth or differentiation was observed
concentration inducing up-regulation of HIF-1α (HIF-1α): 1 µM

C[C@@H](N)[C@H]1CC[C@H](C(=O)Nc2ccncc2)CC1.Cl.Cl [Y-27632, trans-4-[(1R)-1-Aminoethyl]-N-4-pyridinylcyclohexanecarboxamide dihydrochloride, reference compound]
neurogenic effect (neurite outgrowth), alone (SH-SY5Y cells [1]; FIG. 8, Y-27632 50 μM): strongly neurogenic
neurogenic effect (neurite outgrowth), in the presence of ApoTf (SH-SY5Y cells [1]; FIG. 8, Y-27632 50 μM plus ApoTf 0.1 mg/mL): synergistic showing an effect beyond that exhibited by either molecule alone

ApoTf: iron-free form of transferrin protein, purified from pooled human plasma
neurite outgrowth (SH-SY5Y cells [1]; FIG. 1A, ApoTf up to 0.8 mg/mL, 6 days): induce neurite outgrowth in a dose dependent manner
neurite/tubulin outgrowth (tubulin staining) (SH-SY5Y cells [1]; [7]): promoting induction of neurite/tubulin outgrowth
neurite outgrowth / differentiation over the concentration range (SH-SY5Y cells [1]; FIG. 3A): continues to increase differentiation even up to 9.9 μM
neurogenesis / differentiation (neurite outgrowth) (SH-SY5Y cells [1]; FIG. 3B): did induce neurogenesis
differentiation (neurite outgrowth), factor combined with ApoTf (SH-SY5Y cells [1]; FIGS. 7A-7D, ApoTf 0.1 mg/mL plus neurotrophic factor): synergistic effect with other neurotrophic factors and peptides
cell numbers (cell proliferation) (SH-SY5Y cells [2]; FIG. 1B, up to 0.8 mg/mL apo-transferrin): concentration dependent increase in cell numbers
cell proliferation (nuclear staining) (SH-SY5Y cells [2]; [7]): profound effect on promoting cell proliferation
β-III-Tubulin Staining Intensity (SH-SY5Y cells [3]): caused an increase in β-III-tubulin protein
% β-III-tubulin positive cells (neurons) ([4]; FIG. 2A): dramatically increases the percentage of cells differentiated to neurons
% GFAP positive cells (astrocytes) ([4]; FIG. 2B): dramatically increases
movement and gait (Distance from Control, PCA) [5]: significantly ameliorated
Iron Saturation (%) [6]: < 0.3%

ApoTransferrin A: apo-transferrin sample, Grifols, prepared in house
Iron Saturation (%) [6]: 0.27%

ApoTransferrin B: apo-transferrin sample, Grifols, prepared in house
Iron Saturation (%) [6]: 0.59%

ApoTransferrin C: apo-transferrin sample, Grifols, prepared in house
Iron Saturation (%) [6]: 0.24%

HoloTf: iron-saturated form of transferrin, purified from pooled human plasma [reference compound]
neurogenesis / differentiation (neurite outgrowth) (SH-SY5Y cells [1]; FIG. 4): unable to induce differentiation
Iron Saturation (%) [6]: 100%

recombinant ApoTf: recombinant wild-type human transferrin, SEQ ID NO: 1, expressed in 293-6E cells
neurogenesis / differentiation (neurite outgrowth) (SH-SY5Y cells [1]; FIG. 3B): did induce neurogenesis
